Reference: patent publication US8299056B2 (Signal Pharmaceuticals, LLC, priority 2008, dated 2012)
Where two headings read alike, the source gives them in different places.

Molecular target: T1, Syk (Homo sapiens, UniProt P43405)
T1 construct: purchased Carna Biosciences
Assay: Syk HTRF assay
Format: biochemical
Outline: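 Read-out is the 665 nm/615 nm time-resolved fluorescence ratio after EDTA stop and Eu-anti-phosphotyrosine plus streptavidin-DyLight 647 detection. Reaction ran 1 h at room temperature with start mix of 87.5 μM ATP and 80 nM substrate peptide in pH 7.6 HEPES/MgCl2 buffer.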

[1] = read-out: Activity Level (Syk HTRF assay IC50)
[2] = activity levels A-D, read-out: Activity Level (IC50 in the Syk HTRF assay)
[3] = IC50 activity level, read-out: Activity Level

IC50 [1]	IC50 [2]	SMILES	also measured
250 to 500 nM		CC1(C)C(=O)Nc2cc(Nc3nc4cccc(O[C@H]5CCOC5)n4n3)ccc21 [compound 133, (S)-3,3-dimethyl-6-(5-(tetrahydrofuran-3-yloxy)-[1,2,4]triazolo[1,5-a]pyridin-2-ylamino)indolin-2-one]	
0.005 to 250 nM		CC1(C)C(=O)Nc2cc(Nc3nc4cccc(N5CCC(O)CC5)n4n3)ccc21 [compound 114, 6-(5-(4-hydroxypiperidin-1-yl)-[1,2,4]triazolo[1,5-a]pyridin-2-ylamino)-3,3-dimethylindolin-2-one]	
	1000 to 10000 nM	Cc1n[nH]c2cc(Nc3nc4cccc(CN5CCN(c6ccc7c(C)n[nH]c7c6)C(=O)C5)n4n3)ccc12 [Example 234, 1-(3-methyl-1H-indazol-6-yl)-4-((2-(3-methyl-1H-indazol-6-ylamino)-[1,2,4]triazolo[1,5-a]pyridin-5-yl)methyl)piperazin-2-one]	
	1000 to 10000 nM	N#Cc1ccc(Nc2nc3cccc(N[C@H]4CC[C@@H](O)CC4)n3n2)cn1 [Example 381]	
0.005 to 250 nM		CN1C(=O)C(C)(C)c2ccc(Nc3nc4cccc(CN5CCNC(=O)C5)n4n3)cc21 [Example 136, 1,3,3-trimethyl-6-(5-((3-oxopiperazin-1-yl)methyl)-[1,2,4]triazolo[1,5-a]pyridin-2-ylamino)inolin-2-one]	
0.005 to 250 nM		c1ccc(-c2cccc3nc(Nc4ccc5cn[nH]c5c4)nn23)cc1 [compound 68]	
	1000 to 10000 nM	N#Cc1ccc(Nc2nc3cccc(N[C@H]4CC[C@@H](O)CC4)n3n2)c(F)c1 [Example 341, cis-3-fluoro-4-(5-(4-hydroxycyclohexylamino)-[1,2,4]triazolo[1,5-a]pyridin-2-ylamino)benzonitrile]	
	1000 to 10000 nM	O[C@H]1CC[C@@H](Nc2cccc3nc(Nc4ccncc4)nn23)CC1 [Example 389, cis-4-(2-(pyridin-4-ylamino)-[1,2,4]triazolo[1,5-a]pyridin-5-ylamino)cyclohexanol]	
		CC(Cc1cccc2nc(Nc3ccccc3)nn12)C(N)=O (stereo in doubt) [Example 461, (S)-2-methyl-3-(2-(phenylamino)-[1,2,4]triazolo[1,5-a]pyridin-5-yl)propanamide]	IC50 [3]: 1000 to 10000 nM
0.005 to 250 nM		Cc1cc(Nc2nc3cccc(N[C@H]4CC[C@@H](O)CC4)n3n2)cc2c1C(C)(C)C(=O)N2 [compound 109, cis-6-(5-(4-hydroxycyclohexylamino)-[1,2,4]triazolo[1,5-a]pyridin-2-ylamino)-3,3,4-trimethylindolin-2-one]	
		FC(F)(F)c1n[nH]c2cc(Nc3nc4cccc(CC5CCOCC5)n4n3)ccc12 [Example 540, 5-((tetrahydro-2H-pyran-4-yl)methyl)-N-(3-(trifluoromethyl)-1H-indazol-6-yl)-[1,2,4]triazolo[1,5-a]pyridin-2-amine]	IC50 [3]: 0.005 to 250 nM
	1000 to 10000 nM	COc1ccccc1Nc1nc2cccc(N[C@H]3CC[C@@H](O)CC3)n2n1 [Example 339, cis-4-(2-(2-methoxyphenylamino)-[1,2,4]triazolo[1,5-a]pyridin-5-ylamino)cyclohexanol]	
	0.005 to 250 nM	OCC1CN(c2cccc3nc(Nc4ccc(C(F)(F)F)cc4)nn23)C1 [Example 259, (1-(2-(4-(trifluoromethyl)phenylamino)-[1,2,4]triazolo[1,5-a]pyridin-5-yl)azetidin-3-yl)methanol]	
		OC[C@H]1CC[C@H](Nc2cccc3nc(Nc4ccc(C(F)(F)F)cc4)nn23)CC1 (stereo in doubt) [Example 414, trans-(4-(2-(4-(trifluoromethyl)phenylamino)-[1,2,4]triazolo[1,5-a]pyridin-5-ylamino)cyclohexyl)methanol]	IC50 [3]: 500 to 1000 nM
0.005 to 250 nM		Cc1nn(CCO)c2cc(Nc3nc4cccc(N[C@H]5CC[C@@H](O)CC5)n4n3)ccc12 [Example 191, cis-4-(2-(1-(2-hydroxyethyl)-3-methyl-1H-indazol-6-ylamino)-[1,2,4]triazolo[1,5-a]pyridin-5-ylamino)cyclohexanol]	
